Laboratory results: patent publication US20100119494A1, “METHODS AND COMPOSITIONS RELATED TO MODULATING THE EXTRACELLULAR STEM CELL ENVIRONMENT” (Massachusetts Institute of Technology, priority 2005, published 2010)

B1: Hep-III: HSGAG-degrading enzyme; cleaves HSGAGs at undersulfated regions (protein, UniProt Q59289 25-659, looked up)
Heparin-sulfate lyase: QSSSITRKDFDHINLEYSGLEKVNKAVAAGNYDDAAKALLAYYREKSKAREPDFSNAEKPADIRQPIDKVTREMADKALVHQFQPHKGYGYFDYGKDINWQMWPVKDNEVRWQLHRVKWWQAMALVYHATGDEKYAREWVYQYSDWARKNPLGLSQDNDKFVWRPLEVSDRVQSLPPTFSLFVNSPAFTPAFLMEFLNSYHQQADYLSTHYAEQGNHRLFEAQRNLFAGVSFPEFKDSPRWRQTGISVLNTEIKKQVYADGMQFELSPIYHVAAIDIFLKAYGSAKRVNLEKEFPQSYVQTVENMIMALISISLPDYNTPMFGDSWITDKNFRMAQFASWARVFPANQAIKYFATDGKQGKAPNFLSKALSNAGFYTFRSGWDKNATVMVLKASPPGEFHAQPDNGTFELFIKGRNFTPDAGVFVYSGDEAIMKLRNWYRQTRIHSTLTLDNQNMVITKARQNKWETGNNLDVLTYTNPSYPNLDHQRSVLFINKKYFLVIDRAIGEATGNLGVHWQLKEDSNPVFDKTKNRVYTTYRDGNNLMIQSLNADRTSLNEEEGKVSYVYNKELKRPAFVFEKPKKNAGTQNFVSIVYPYDGQKAPEISIRENKGNDFEKGKLNLTLTINGKQQLVLVP
B2: Hep-I: HSGAG-degrading enzyme; cleaves HSGAGs at highly sulfated regions; gift of Momenta Pharmaceuticals (protein, UniProt Q05819 22-384, looked up)
Heparin lyase I: QQKKSGNIPYRVNVQADSAKQKAIIDNKWVAVGINKPYALQYDDKLRFNGKPSYRFELKAEDNSLEGYAAGETKGRTELSYSYATTNDFKKFPPSVYQNAQKLKTVYHYGKGICEQGSSRSYTFSVYIPSSFPDNATTIFAQWHGAPSRTLVATPEGEIKTLSIEEFLALYDRMIFKKNIAHDKVEKKDKDGKITYVAGKPNGWKVEQGGYPTLAFGFSKGYFYIKANSDRQWLTDKADRNNANPENSEVMKPYSSEYKTSTIAYKMPFAQFPKDCWITFDVAIDWTKYGKEANTILKPGKLDVMMTYTKNKKPQKAHIVNQQEILIGRNDDDGYYFKFGIYRVGNSTVPVTYNLSGYSETAR

How the values were obtained:
Format in all cases: cell-based, mouse
[1] = system: differentiating ES cells (J1); assay: Confocal microscopy of vWF and Oct-4 staining in differentiating ES cells; conditions: for vWF expression (confocal microscopy): FIG. 15A, treated differentiating ES cells; for Oct-4 levels of differentiating cells (confocal microscopy): FIG. 15B
Description: (§1) Mouse embryonic stem cells (J1) (gift from Bevin Engelward, Mass. Institute of Technology, Cambridge, Mass.) were grown in DMEM with 2 mM L-glutamine (GIBCO, Carlsbad, Calif.) adjusted to contain […] sodium pyruvate, 10 mM nonessential amino acids and 1.5 g/L sodium bicarbonate, with 15% fetal bovine serum (Hyclone, South Logan, Utah) and supplemented with 100 units/mL penicillin G (Sigma, St. Louis, Mo.), 100 μg/mL streptomycin sulfate (Sigma), 30 mM beta-mercaptoethanol (Sigma) and 1000 units/ml murine leukemia inhibitory factor, LIF (Chemicon, Temecula, Calif.). The cells were plated in 10 cm^2 cell culture dishes, coated with 0.1% gelatin B (Sigma) and grown at 37° C. in a 5% CO2 humidifier incubator. The culture medium was changed every 2 days. The cells were subcultured at a split ratio of 1:10 when they reached 80% to 90% confluency, using a 0.25% trypsin-EDTA solution (Sigma). To induce formation of embryoid bodies and differentiation into endothelial cells, J1 cells were plated at a density of 1.25×10^5 cells/100 mm dish, or 3×10^4 cells/6 wells and cultured in the absence of LIF. Fresh media was replenished every 2 days.
(§2) Heparinase III (Hep-III) was prepared as described previously (Godavarti, R., et al. (1996) Biochemistry 35, 6846-52). Heparinase I (Hep-I) was a generous gift of Momenta Pharmaceuticals (Cambridge, Mass.). Sodium chlorate and heparin were purchased from Sigma and Cambrex BioWhittaker (East Rutherford, N.J.), respectively. To enzymatically modify the HSGAG glycome signature of the cells, cells were washed with phosphate buffer saline (PBS) and incubated with Hep-I or Hep-III for 30 minutes every day at 37° C. in serum free DMEM. Digested HSGAG residues were removed by washing the cells, and cells were then fed with fresh media. In an additional experiment, cells were cultured with medium containing sodium chlorate, which blocks the sulfation of HSGAGs. In a reversal experiment, heparin was added to the culture to overcome the chlorate induced synthetic block. Treated cells were analyzed for differentiation into endothelial cells between day 3 and day 15. Hep-III was added to the cells at a concentration of 2.5 μg/mL, Hep-I was added at a concentration of 1.5 μg/mL, sodium chlorate at 10 mM and heparin (20 μg). The concentrations of enzymes were optimized to exhaustively cleave all cell surface HSGAGs in the given period of time. All enzymes and chemicals were diluted in serum free DMEM.
For microscopic analysis of endothelial cells, the differentiating J1 cells were fixed in cold methanol at designated time points, blocked in goat serum and probed overnight with a rabbit primary antibody against vWF, an endothelial cell marker, or Oct-4, a stem cell marker. The sections were washed and re-probed with a goat secondary antibody coupled to FITC. The nuclei were counterstained with propidium iodide. Images were captured using a […] LSM510 confocal microscope at a 512×512 pixels resolution (Leica, Bannockburn, Ill.). Fluorochromes were excited with 488 nm and 543 nm laser lines, and the images were captured using 505-530 BP and 565-615 BP filters at a 512×512 pixels resolution.
To dissect the role of HSGAG structure in ES cell differentiation, the cell surface and extracellular HSGAG moieties of differentiating ES cells were modified using an enzymatic and pharmacological approach. Specifically, differentiating ES cells were incubated with Hep-I or Hep-III for 30 minutes every day to cleave the cell surface and extracellular matrix (ECM) HSGAGs at structurally distinct sites, or cultured in media supplemented with sodium chlorate, which is a pharmacological inhibitor of HSGAG biosynthesis (Safaiyan, F., et al. (1999) J Biol Chem 274, 36267-73). Hep-I cleaves HSGAGs at highly sulfated regions, and Hep-III cleaves HSGAGs at undersulfated regions (Linhardt, R. J., et al. (1990) Biochemistry 29, 2611-7; Godavarti, R., and Sasisekharan, R. (1996) Biochem Biophys Res Commun 229, 770-7). […]

[2] = system: differentiating ES cells (J1); assay: Flow cytometry of vWF in differentiating ES cells after enzymatic or pharmacological modification of HSGAGs; conditions: FIG. 12B, Hep-I 1.5 μg/mL or Hep-III 2.5 μg/mL 30 minutes every day, sodium chlorate 10 mM in medium
Description: as §1
Heparinase III (Hep-III) was prepared as described previously (Godavarti, R., et al. (1996) Biochemistry 35, 6846-52). […] Treated cells were analyzed for differentiation into endothelial cells between day 3 and day 15. […]
Cells were harvested at various time points during differentiation, incubated with rat monoclonal antibody against CD16/CD32 (1:50 dilution, Pharmingen, San Diego, Calif.) to block Fey receptors and incubated further with a primary antibody against von Willebrand factor (vWF) (Dako (Carpinteria, Calif.), rabbit polyclonal, added at a 1:100 dilution). […] Cells were then washed twice and were incubated with FITC-conjugated secondary antibody (Jackson ImmunoResearch, West Grove, Pa.) in a 1:100 dilution, washed twice and taken up in OptiMEM (GIBCO/BRL, Carlsbad, Calif.) and analyzed on a Becton Dickinson (Franklin Lakes, N.J.) FACScan flow cytometer (excitation 488 nm, argon laser; emission 580/30). […]

[3] = system: differentiating ES cells (J1); assay: Real-time PCR of Oct-4, VEGF-R2, VE-cadherin and eNOS transcripts in differentiating ES cells; conditions: for Oct-4 transcript levels / VE-cadherin transcript levels / eNOS transcript levels: real-time PCR, FIG. 19
Description: as §1, §2
RNA was isolated from J1 cells using TRIzol (Invitrogen, Carlsbad, Calif.) and RNAlater (Qiagen, Valencia, Calif.) according to the manufacturer's protocol. Single-stranded cDNA was generated via oligo-dT primed reverse transcription, and genes serving as markers for differentiation were quantified using an Abi Prism 7700 real-time PCR thermocycler (Applied Biosystems, Foster City, Calif.). Expression levels were obtained for the marker genes Oct-4, VE-cadherin, VEGF-R2, and eNOS, with β-actin used as a control. PCR conditions involved denaturation for 10 min at 95° C., followed by 40 cycles of denaturation for 20 sec at 94° C., and annealing and extension for 1 min at 60° C. cDNA isolated from J1 cells and primers for the described genes were mixed with SYBR Green PCR Mastermix (Applied Biosystems) for real-time quantification according to the manufacturers instructions. Primers used were 5′-[…]-3′ (SEQ ID NO: 1) and 5′-[…]-3′ (SEQ ID NO: 2) for Oct-4; 5′-[…]-3′ (SEQ ID NO: 3) and 5′-[…]-3′ (SEQ ID NO: 4) for VE-cadherin; 5′-[…]-3′ (SEQ ID NO: 5) and 5′-[…]-3′ (SEQ ID NO: 6) for TIE-2; 5′-[…]-3′ (SEQ ID NO: 7) and 5′-[…]-3′ (SEQ ID NO: 8) for VEGF-R2; 5′-[…]-3′ (SEQ ID NO: 9) and 5% […]-3′ (SEQ ID NO: 10) for ENOS; 5′-[…]-'3 (SEQ ID NO: 11) and 5′-[…]-'3 (SEQ ID NO: 12) for 13-actin. The sulfotransferase primers and conditions were chosen. […]

[4] = system: phosphorylation of ERK1/2 (MAPK pathway); assay: Western blot of phospho-ERK normalized to total ERK1/2 in differentiating ES cells; conditions: for phosphorylation of ERK1/2: Western blot, FIGS. 14 and 18
Description: as §2
For elucidating the biochemical pathways involved downstream of the modulation of the cell surface sugars, protein contents of the embryoid bodies were solubilized by rapid mixing with 3× SDS sample buffer under reducing conditions. Equivalent amounts of protein per sample were electrophoretically resolved on 4-12% gradient polyacrylamide gels and transferred onto a nitrocellulose (0.22 μm) membrane. The membrane was subsequently probed with a phosphor-ERK antibody (1:800 dilution, Cell Signaling Technologies, Danvers, Mass.), which specifically detects the phosphorylated forms of ERK1 and 2. The signal was amplified using a 1:2000 dilution of the appropriate horseradish peroxidase-conjugated secondary antibody (BioRad, Hercules, Calif.), and the immunocomplexes were visualized using enhanced chemiluminescence detection (Amersham Life Science, Piscataway, N.J.). The signal was normalized to the expression of total ERK1/2, which was detected on the same blot using ERK1/2 specific antibodies (Santa Cruz, Santa Cruz, Calif., used at a 1:200 dilution). Quantification of the luminescence signal was carried out by a Kodak 2000R imager.
The MAPK pathway is the downstream convergence point of the signaling of several angiogenic factors such as VEGF, FGF, HGF, EGF, PDGF and angiopoietins (Sengupta, S., et al. (2003) Arterioscler Thromb Vasc Biol 23, 69-75). […]

ES cells = assay: Optimization of culture conditions for differentiation of ES cells into endothelial cells (marker expression); conditions: 15% FBS present, LIF absent
Description: Mouse embryonic stem cells (J1) (gift from Bevin Engelward, Mass. Institute of Technology, Cambridge, Mass.) were grown in DMEM with 2 mM L-glutamine (GIBCO, Carlsbad, Calif.) adjusted to contain 100 mM sodium pyruvate, 10 mM nonessential amino acids and 1.5 g/L sodium bicarbonate, with 15% fetal bovine serum (Hyclone, South Logan, Utah) and supplemented with 100 units/mL penicillin G (Sigma, St. Louis, Mo.), 100 μg/mL streptomycin sulfate (Sigma), 30 mM beta-mercaptoethanol (Sigma) and 1000 units/ml murine leukemia inhibitory factor, LIF (Chemicon, Temecula, Calif.). The cells were plated in 10 cm^2 cell culture dishes, coated with 0.1% gelatin B (Sigma) and grown at 37° C. in a 5% CO2 humidifier incubator. The culture medium was changed every 2 days. The cells were subcultured at a split ratio of 1:10 when they reached 80% to 90% confluency, using a 0.25% trypsin-EDTA solution (Sigma). To induce formation of embryoid bodies and differentiation into endothelial cells, J1 cells were plated at a density of 1.25×10^5 cells/100 mm dish, or 3×10^4 cells/6 wells and cultured in the absence of LIF. Fresh media was replenished every 2 days.
To optimize the conditions for efficient differentiation of ES cells into endothelial cells in vitro, the expression levels of ES cell specific and endothelial cell specific markers were analyzed at different stages of differentiation under different cell culture conditions. Specifically, the effects of cell density, the ECM content (i.e., gelatin, collagen, laminin, matrigel), exogenous addition of growth factors (i.e., VEGF, FGF, HGF and insulin) and different types of serum (i.e., Sigma fetal bovine serum (FBS) and Hyclone FBS) were tested.

[5] = heparin added to sodium chlorate treated ES cells

Molecule	vWF expression (confocal microscopy) [1]	Oct-4 levels of differentiating cells (confocal microscopy) [1]	decrease of the proportion of cells expressing detectable levels of vWF [2]	Oct-4 transcript levels [3]	VE-cadherin transcript levels [3]	eNOS transcript levels [3]	phosphorylation of ERK1/2 [4]	effect of exogenous addition of growth factors on differentiation into endothelial cells (ES cells)	other results
[O-][Cl+2]([O-])O [sodium chlorate, reference compound]	inhibitory effects	none of the treatments had significant effects	approximately 5 fold	no effect	significantly decreased	significantly decreased	inhibits		
HGF: growth factor added exogenously to the culture								No effects	
VEGF								No effects	
heparin [reference compound]									vWF staining (confocal microscopy), reconstitution ([1]; heparin added to sodium chlorate treated ES cells during differentiation, FIG. 15C): increased vWF staining; VE-cadherin transcript levels, reconstitution [3, 5]: increased; eNOS transcript levels, reconstitution [3, 5]: increased; phosphorylation of ERK1/2, reversal of inhibition ([4]; exogenous heparin added to treated cells): inhibition is reversed
insulin: listed among growth factors added exogenously to the culture								No effects	
B1	inhibitory effects	none of the treatments had significant effects	~3 fold	no effect	decreased	decreased	inhibits		
B2	inhibitory effects	none of the treatments had significant effects	approximately 5 fold	no effect	significantly decreased	significantly decreased	inhibits		
